Measured values reported in patent US10570167B2 (Calithera Biosciences, Inc., priority 2016, dated 2020).

Target: recombinant CD73 (Homo sapiens (Human), UniProt P21589)
Test: Inhibition of soluble recombinant CD73 enzyme activity in vitro (AMP hydrolysis, Malachite Green phosphate detection)
Format: biochemical
Settings: recombinant CD73 0.5 nM, AMP 50 μM, 30 minutes at room temperature
Procedure: Inhibition of the CD73 Enzyme In Vitro
The concentration of inorganic phosphate was determined using a phosphate standard curve.

Sequence of recombinant CD73 (P21589 27-547): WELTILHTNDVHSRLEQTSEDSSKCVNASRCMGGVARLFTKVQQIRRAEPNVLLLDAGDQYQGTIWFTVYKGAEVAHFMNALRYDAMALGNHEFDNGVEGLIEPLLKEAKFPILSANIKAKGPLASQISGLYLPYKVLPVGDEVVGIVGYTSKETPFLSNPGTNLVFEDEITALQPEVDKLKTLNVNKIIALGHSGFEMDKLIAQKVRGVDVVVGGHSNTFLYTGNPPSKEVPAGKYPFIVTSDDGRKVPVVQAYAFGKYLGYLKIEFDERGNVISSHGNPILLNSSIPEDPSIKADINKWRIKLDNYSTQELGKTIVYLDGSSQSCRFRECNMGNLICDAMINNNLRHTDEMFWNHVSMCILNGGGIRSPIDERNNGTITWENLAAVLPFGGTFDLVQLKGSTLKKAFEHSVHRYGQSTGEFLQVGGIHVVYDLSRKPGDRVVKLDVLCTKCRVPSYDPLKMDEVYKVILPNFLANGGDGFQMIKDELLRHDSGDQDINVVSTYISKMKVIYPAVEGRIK

Question: With `CN(C)C(=O)c1cccc(CC(OC[C@H]2O[C@@H](n3cnc4c(N)nc(Cl)nc43)[C@@H](F)[C@@H]2O)(C(=O)O)C(=O)O)c1` as the compound, how does the IC50 read?
Answer: 521 nM

Question: Which IC50 does the source give for `C=C1[C@@H](O)[C@H](n2cnc3c(N)nc(Cl)nc32)O[C@@H]1COC(Cc1ccccc1)(C(=O)O)C(=O)O` [Example 154] here?
Answer: 1800 nM

Question: How did the IC50 turn out when `CS(=O)(=O)c1ccc(-c2ccc(CC(OC[C@H]3O[C@@H](n4cnc5c(N)nc(Cl)nc54)[C@@H](F)[C@@H]3O)(C(=O)O)C(=O)O)cc2)cc1` [Example 153] was run?
Answer: 74 nM

Question: How did the IC50 turn out when `Nc1nc(Cl)nc2c1ncn2[C@@H]1O[C@H](COC(Cc2ccc(C(F)(F)F)cc2)(C(=O)O)C(=O)O)[C@@H](O)[C@@H]1F` [Example 20, 2-(((2R,3R,4S,5R)-5-(6-amino-2-chloro-9H-purin-9-yl)-4-fluoro-3-hydroxytetrahydrofuran-2-yl)methoxy)-2-(4-(trifluoromethyl)benzyl) malonic acid] was run?
Answer: 109 nM

Question: How did the IC50 turn out when `COc1ccccc1C(=O)Nc1ccc(CC(OC[C@H]2O[C@@H](n3cnc4c(N)nc(Cl)nc43)[C@@H](F)[C@@H]2O)(C(=O)O)C(=O)O)cc1` [Example 150] was run?
Answer: 16 nM

Question: For `Nc1nc(Cl)nc2c1ncn2[C@@H]1O[C@H](COC(Cc2cccc(F)c2)(C(=O)O)C(=O)O)[C@@H](O)[C@@H]1F`, which IC50 is on record?
Answer: 273 nM

Question: With `Nc1nc(Cl)nc2c1ncn2[C@@H]1O[C@H](COC(Cc2ccc(-c3ccccn3)cc2)(C(=O)O)C(=O)O)[C@@H](O)[C@@H]1F` [Example 176] as the compound, how does the IC50 read?
Answer: 56 nM

Question: Which IC50 does the source give for `Nc1nc(Cl)nc2c1ncn2[C@@H]1O[C@H](COC(Cc2ccc(-c3cccs3)cc2)(C(=O)O)C(=O)O)[C@@H](O)[C@@H]1F` [Example 158] here?
Answer: 105 nM

Question: How did the IC50 turn out when `C[C@H]1[C@@H](O)[C@H](n2cnc3c(N)nc(Cl)nc32)O[C@@H]1COC(Cc1ccccc1)(C(=O)O)C(=O)O` [Example 167] was run?
Answer: > 40000 nM

Question: Which IC50 does the source give for `Nc1ncnc2c1ncn2[C@@H]1O[C@H](COC(Cc2ccccc2)(C(=O)O)C(=O)O)[C@@H](O)[C@H]1F` here?
Answer: 21600 nM

Question: For `Nc1nc(Cl)nc2c1ncn2[C@@H]1O[C@H](COC(Cc2ccc(-c3ccccc3O)cc2)(C(=O)O)C(=O)O)[C@@H](O)[C@@H]1F` [Example 160], which IC50 is on record?
Answer: 12 nM

Question: For `CC(C)(C)OC(=O)Nc1nc(Cl)nc2c1ncn2[C@@H]1O[C@H](COC(Cc2ccccc2)(C(=O)O)c2nnnn2C(C)(C)c2ccccc2)[C@@H](O)[C@@H]1F` (some centres unmarked) [Example 188], which IC50 is on record?
Answer: 11500 nM

Question: `CCOC(=O)C(Cc1ccc(-c2ccccc2)cc1)(OC[C@H]1O[C@@H](n2cnc3c(N)nc(Cl)nc32)[C@@H](F)[C@@H]1O)C(=O)O` (single isomer, unassigned) [84 Isomer 2] was tested. Which IC50 did it give?
Answer: 8260 nM

Question: With `N#Cc1cccc(CC(OC[C@H]2O[C@@H](n3cnc4c(N)nc(Cl)nc43)[C@@H](F)[C@@H]2O)(C(=O)O)C(=O)O)c1` as the compound, how does the IC50 read?
Answer: 531 nM

Question: Which IC50 does the source give for `CCOC(=O)c1ccccc1-c1ccc(CC(OC[C@H]2O[C@@H](n3cnc4c(N)nc(Cl)nc43)[C@@H](F)[C@@H]2O)(C(=O)O)C(=O)O)cc1` [Example 175] here?
Answer: 18 nM

Question: Which IC50 does the source give for `CC(C)(C)OC(=O)Nc1nc(N=[N+]=[N-])nc2c1ncn2[C@@H]1O[C@H](COC(Cc2cccc(C#N)c2)(C(=O)O)C(=O)O)[C@@H](O)[C@@H]1F` here?
Answer: 1790 nM

Question: How did the IC50 turn out when `Nc1cccc(CC(OC[C@H]2O[C@@H](n3cnc4c(N)nc(Cl)nc43)[C@@H](F)[C@@H]2O)(C(=O)O)C(=O)O)c1` was run?
Answer: 218 nM

Question: How did the IC50 turn out when `Nc1nc(Cl)nc2c1ncn2[C@@H]1O[C@H](COC(Cc2ccsc2)(C(=O)O)C(=O)O)[C@@H](O)[C@@H]1F` was run?
Answer: 206 nM

Question: With `Nc1nc(Cl)nc2c1ncn2[C@@H]1O[C@H](COC(Cc2ccccc2)(C(=O)O)C(=O)O)[C@@H](O)[C@@H]1F` [Example 6, 2-(((2R,3R,4S,5R)-5-(6-amino-2-chloro-9H-purin-9-yl)-4-fluoro-3-hydroxytetrahydro-furan-2-yl)methoxy)-2-benzylmalonic acid] as the compound, how does the IC50 read?
Answer: 130 nM

Question: How did the IC50 turn out when `Nc1nc(Cl)nc2c1ncn2[C@@H]1O[C@H](COC(Cc2ccccc2)(C(=O)O)C(=O)O)[C@H](N)[C@H]1O` [Example 166] was run?
Answer: > 10000 nM

Question: How did the IC50 turn out when `Nc1nc(Cl)nc2c1ccn2[C@@H]1O[C@H](COC(Cc2ccc(C(=O)O)cc2)(C(=O)O)C(=O)O)[C@@H](O)[C@@H]1F` [Example 171] was run?
Answer: 114 nM

Question: `CCOC(=O)C(OC[C@H]1O[C@@H](n2cnc3c(N)nc(Cl)nc32)[C@H](O)[C@@H]1O)c1nnn[nH]1` (some centres unmarked) [Example 182] was tested. Which IC50 did it give?
Answer: > 50000 nM

Question: Which IC50 does the source give for `CCOC(=O)C(Cc1ccc(-c2ccccc2)cc1)(OC[C@H]1O[C@@H](n2cnc3c(N)nc(Cl)nc32)[C@@H](F)[C@@H]1O)C(=O)O` (single isomer, unassigned) [84 Isomer 1] here?
Answer: 7260 nM

Question: `Nc1ncc(-c2ccc(CC(OC[C@H]3O[C@@H](n4cnc5c(N)nc(Cl)nc54)[C@@H](F)[C@@H]3O)(C(=O)O)C(=O)O)cc2)cn1` [Example 159] was tested. Which IC50 did it give?
Answer: 76 nM

Question: Which IC50 does the source give for `Nc1nc(Cl)nc2c1ncn2[C@@H]1O[C@H](COC(Cc2ccc(-c3ccccc3C(=O)O)cc2)(C(=O)O)C(=O)O)[C@@H](O)[C@@H]1F` [Example 151] here?
Answer: 31 nM

Question: With `Nc1nc(Cl)nc2c1ncn2[C@@H]1O[C@H](COC(Cc2ccc(N3CCCCS3(=O)=O)cc2)(C(=O)O)C(=O)O)[C@@H](O)[C@@H]1F` [Example 178] as the compound, how does the IC50 read?
Answer: 16 nM

Question: Which IC50 does the source give for `Nc1nc(Cl)nc2c1ncn2[C@@H]1O[C@H](COC(Cc2cccc(C(=O)O)c2)(C(=O)O)C(=O)O)[C@@H](O)[C@@H]1F` here?
Answer: 119 nM

Question: `C[C@@]1(O)[C@H](O)[C@@H](COC(Cc2ccccc2)(C(=O)O)c2nn[nH]n2)O[C@H]1n1cnc2c(N)nc(Cl)nc21` (some centres unmarked) [Example 202] was tested. Which IC50 did it give?
Answer: > 50000 nM

Question: With `Nc1nc(Cl)nc2c1ncn2[C@@H]1O[C@H](COC(Cc2ccc(F)cc2)(C(=O)O)C(=O)O)[C@@H](O)[C@@H]1F` as the compound, how does the IC50 read?
Answer: 343 nM

Question: For `Cc1noc(C)c1-c1ccc(CC(OC[C@H]2O[C@@H](n3cnc4c(N)nc(Cl)nc43)[C@@H](F)[C@@H]2O)(C(=O)O)C(=O)O)cc1` [Example 157], which IC50 is on record?
Answer: 34 nM

Question: With `Nc1nc(Cl)nc2c1ncn2[C@@H]1O[C@H](COC(Cc2ccc(N3CCCC3=O)cc2)(C(=O)O)C(=O)O)[C@@H](O)[C@@H]1F` [Example 162] as the compound, how does the IC50 read?
Answer: 54 nM

Question: Which IC50 does the source give for `Nc1nc(Cl)nc2c1ncn2[C@@H]1O[C@H](COC(Cc2ccc(-c3ccncc3)cc2)(C(=O)O)C(=O)O)[C@@H](O)[C@@H]1F` [Example 156] here?
Answer: 86 nM

Question: Which IC50 does the source give for `Nc1nc(Cl)nc2c1ncn2[C@@H]1O[C@H](COC(Cc2ccc(N3CCCNC3=O)cc2)(C(=O)O)C(=O)O)[C@@H](O)[C@@H]1F` [Example 179] here?
Answer: 9 nM

Question: `COc1cccc(CC(OC[C@H]2O[C@@H](n3cnc4c(N)nc(Cl)nc43)[C@@H](F)[C@@H]2O)(C(=O)O)C(=O)O)c1` was tested. Which IC50 did it give?
Answer: 839 nM

Question: Which IC50 does the source give for `N#Cc1ccc(CC(OC[C@H]2O[C@@H](n3cnc4c(N)nc(Cl)nc43)[C@@H](F)[C@@H]2O)(C(=O)O)C(=O)O)cc1` here?
Answer: 97 nM

Question: Which IC50 does the source give for `C[C@@]1(F)C[C@@H](COC(Cc2ccc(C(=O)O)cc2)(C(=O)O)C(=O)O)O[C@H]1n1cnc2c(N)nc(Cl)nc21` [Example 180] here?
Answer: > 100000 nM

Question: With `CCOC(=O)C(Cc1ccc(C(=O)OC)cc1)(OC[C@H]1O[C@@H](n2cnc3c(N)nc(Cl)nc32)[C@H](O)[C@@H]1O)c1nn[nH]n1` (some centres unmarked) [Example 195] as the compound, how does the IC50 read?
Answer: > 50000 nM

Question: `CCOC(=O)C(Cc1ccccc1)(OC[C@H]1O[C@@H](n2cnc3c(N)nc(Cl)nc32)[C@@H](F)[C@@H]1O)c1nn[nH]n1` (some centres unmarked) [Example 193] was tested. Which IC50 did it give?
Answer: > 50000 nM

Question: Which IC50 does the source give for `Nc1nc(Cl)nc2c1ncn2[C@@H]1O[C@H](COC(Cc2cccc(OC(F)(F)F)c2)(C(=O)O)C(=O)O)[C@@H](O)[C@@H]1F` [Example 15, 2-(((2R,3R,4S,5R)-5-(6-amino-2-chloro-9H-purin-9-yl)-4-fluoro-3-hydroxytetrahydrofuran-2-yl)methoxy)-2-(3-(trifluoromethoxy)benzyl) malonic acid] here?
Answer: 308 nM

Question: Which IC50 does the source give for `Nc1nc(Cl)nc2c1ncn2[C@@H]1O[C@H](COC(C(=O)O)C(=O)O)[C@@H](O)[C@@H]1F` [Example 5] here?
Answer: 13100 nM

Question: For `Nc1nc(Cl)nc2c1ncn2[C@@H]1O[C@H](COC(Cc2ccc(CO)cc2)(C(=O)O)C(=O)O)[C@@H](O)[C@@H]1F`, which IC50 is on record?
Answer: 160 nM

Question: With `Nc1nc(Cl)nc2c1ccn2[C@@H]1O[C@H](COC(Cc2ccccc2)(C(=O)O)C(=O)O)[C@@H](O)[C@@H]1F` [Example 169] as the compound, how does the IC50 read?
Answer: 119 nM

Question: `Nc1nc(Cl)nc2c1ncn2[C@@H]1O[C@H](COC(Cc2ccc(OC(F)(F)F)cc2)(C(=O)O)C(=O)O)[C@@H](O)[C@@H]1F` was tested. Which IC50 did it give?
Answer: 57 nM

Question: With `Nc1nc(Cl)nc2c1ncn2[C@@H]1O[C@H](COC(Cc2ccc(-c3cccc(F)c3O)cc2)(C(=O)O)C(=O)O)[C@@H](O)[C@@H]1F` [Example 181] as the compound, how does the IC50 read?
Answer: 9 nM

Question: With `C[C@@H]1[C@@H](O)[C@H](n2cnc3c(N)nc(Cl)nc32)O[C@@H]1COC(Cc1ccccc1)(C(=O)O)C(=O)O` [Example 168] as the compound, how does the IC50 read?
Answer: 1750 nM

Question: With `Nc1nc(Cl)nc2c1ncn2[C@@H]1O[C@H](COC(Cc2ccccc2)(C(=O)O)C(=O)O)[C@@H](F)[C@H]1O` [Example 165] as the compound, how does the IC50 read?
Answer: 8930 nM

Question: With `C[C@@]1(O)[C@@H](COC(Cc2ccccc2)(C(=O)O)C(=O)O)O[C@@H](n2cnc3c(N)nc(Cl)nc32)[C@@H]1O` [Example 149] as the compound, how does the IC50 read?
Answer: 51 nM

Question: Which IC50 does the source give for `[N-]=[N+]=Nc1nc(N)c2ncn([C@@H]3O[C@H](COC(Cc4cccc(-c5nnn[nH]5)c4)(C(=O)O)C(=O)O)[C@@H](O)[C@@H]3F)c2n1` here?
Answer: 1040 nM

Question: How did the IC50 turn out when `Cc1[nH]ncc1-c1ccc(CC(OC[C@H]2O[C@@H](n3cnc4c(N)nc(Cl)nc43)[C@@H](F)[C@@H]2O)(C(=O)O)C(=O)O)cc1` [Example 177] was run?
Answer: 48 nM

Question: For `CC(C)(C)n1nnc(C(Cc2ccccc2)(OC[C@H]2O[C@@H](n3cnc4c(N)nc(Cl)nc43)[C@H](O)[C@H]2O)C(=O)O)n1` (some centres unmarked) [Example 204], which IC50 is on record?
Answer: 7850 nM

Question: How did the IC50 turn out when `Nc1nc(Cl)nc2c1ncn2[C@@H]1O[C@H](COC(Cc2ccc(-c3ccc(C(=O)O)cc3)cc2)(C(=O)O)C(=O)O)[C@@H](O)[C@@H]1F` [Example 155] was run?
Answer: 47 nM

Question: With `Cc1n[nH]c(C)c1-c1ccc(CC(OC[C@H]2O[C@@H](n3cnc4c(N)nc(Cl)nc43)[C@@H](F)[C@@H]2O)(C(=O)O)C(=O)O)cc1` [Example 152] as the compound, how does the IC50 read?
Answer: 34 nM

Question: With `Nc1nc(Cl)nc2c1ncn2[C@@H]1O[C@H](COC(Cc2ccc(Cl)nc2)(C(=O)O)C(=O)O)[C@@H](O)[C@@H]1F` [Example 8, 2-(((2R,3R,4S,5R)-5-(6-amino-2-chloro-9H-purin-9-yl)-4-fluoro-3-hydroxytetrahydro-furan-2-yl)methoxy)-2-((6-chloropyridin-3-yl)methyl)malonic acid] as the compound, how does the IC50 read?
Answer: 363 nM
